Measurements taken from patent US20090220528A1, “Stimulation of Toll-Like Receptors on T Cells” (THE TRUSTEES OF THE UNIVERISTY OF PENNSYLVANIA CNETER FOR …, priority 2005, published 2009).

Experiments:
Type in all cases: cell-based, mouse
activated CD4+ T cells [1] = assay: Effect of signaling inhibitors on TLR ligand-mediated survival; details: for effect on poly(I:C)- or CpG DNA-enhanced activated CD4+ T cell survival: dose dependent (FIG. 4A)
Procedure: TLR ligands used in all experiments were dissolved in PBS except for PGN, which was solubilized in PBS with 0.02% ethanol. SB203580, U0126, NEMO-binding domain peptide (NBD), and NBD-C were all dissolved in DMSO and purchased from Calbiochem (La Jolla, Calif.).
Therefore, the next set of experiments were designed to assess whether MAPK p38 or ERK 1/2 activation is necessary for TLR ligand-mediated survival in activated CD4^+ T cells. The ERK1/2 activation inhibitor U0126 or the MAPK p38 inhibitor SB203580 was added to TLR ligand-treated activated CD4^+ T cells and viability was assessed.

activated CD4+ T cells [2] = assay: Survival of activated CD4+ T cells treated with TLR ligands (7-AAD/annexin exclusion)
Procedure: All CD4^+ T cell activation was conducted in complete culture medium composed of RPMI 1640 (Life Technologies, Grand Island, N.Y.), 1.5 μM 2-ME (Sigma-Aldrich, St. Louis, Mo.), 50 μg/ml gentamicin (Life Technologies), and 10% FCS (Mediatech, Washington, D.C.) at 37° C. in 5% CO2. Purified CD4^+ T cells from either BALB/c, MyD88^−/−, or MyD88^+/+ wild-type control littermates were activated on 24-well plates (Costar, Cambridge, Mass.) coated with 1.0 μg/ml CD3ε monoclonal antibody (2C11; BD Biosciences) and 1.0 μg/ml CD28 monoclonal antibody (37.51; BD Biosciences) for 16 hours. In experiments with DO11.10 mice, 1 μg/ml of pOVA, a peptide derived from chicken albumin amino acid residues […] was added to 2×10^6/ml erythrocyte-depleted splenocyte and lymph node cell pools for 16 hours. Following pOVA-induced activation, CD4^+ T cell APC complexes were disrupted with 5 mM EDTA/PBS for 10 minutes at 25° C., washed twice in PBS, and purified with magnetic beads using the MACS CD4^+ T cell isolation kit as described elsewhere herein. Purity of activated DO11.10 CD4^+ T cells exceeded 96%. As described elsewhere herein, the remainder of the contaminants by FACS analysis were CD8^+ T cells, with APCs at <0.1% by RT-PCR.
Following activation, purified CD4^+ T cells were washed twice in PBS and replated in culture medium at 10^6/ml. Cultures were left untreated or treated with either TLR ligands and/or inhibitors for indicated times and concentrations. Following incubation, CD4^+ T cells were washed twice in PBS/2% FBS and stained with CD4-allophycocyanin monoclonal antibody and 7-aminoactinomycin D (7-AAD; BD PharMingen) or annexin (BD PharMingen) and survival was assessed by exclusion of either of these two stains. For absolute live cell counts 50,000 CD45.1^+ splenocytes labeled with anti-CD45.1-PE monoclonal antibody (A20; BD PharMingen) were also added to stained CD4^+ T cell sample FACS tubes just before FACS analysis. Live CD4^+ T cell counts were calculated by taking the ratio of the number of CD4^+CD45.1^−7-ADD^− events collected to the number CD45.1^+ events collected and multiplying by 50,000. Proliferation was measured by CFSE dye dilution as previously described (Wells et al., 1997 J. Clin. Invest. 100:3173).
TLR ligands directly promote the survival of several cell types including neutrophils, DC, and B cells (Lundqvist et al., 2002, Cancer Immunol. Immunother. 51:139; Sabroe et al., 2003, J. Immunol. 170:5268; Grillot et al., 1996, J. Exp. Med. 183:381; Grillot et al., 1996, J. Exp. Med. 183:381). Since it was observed that activated CD4^+ T cells also express TLRs and signal in response to TLR ligands, the next set of experiments were designed to assess whether TLR ligands could directly enhance survival of these cells. DO11.10 CD4^+ T cells, that encode a transgenic TCR specific for a peptide derived from chicken OVA (pOVA), were activated with pOVA-pulsed APCs for 16 hours ex vivo, purified by magnetic beads to remove all non-CD4^+ T cells, and replated in unsupplemented culture medium in the absence or presence of TLR ligands. Survival was then assessed 72 hours following activation (FIG. 3A). Poly(I:C) or CpG DNA induced increases of activated CD4^+ T cell survival from 38% to 71 and 73%, respectively.

[3] = system: Foxp3+GFP+ and Foxp3-GFP- T cells; assay: Foxp3 expression (GFP reporter) and IL-6 production in Foxp3+ and Foxp3- T cells under stimulation; details: stimulation with anti-CD3 and anti-CD28 antibodies and TGF-b, with additions (FIG. 22)
Procedure: In order to study the effect of stimulation conditions on Foxp3 expression, T cells were from mice having a reporter construct introduced into the FOXP3 locus (Betteli et al., 2006, Nature 441:235-238) by sorting cells based on the GFP-reporter construct. The reporter construct expresses both Fox3p and the fluorescent protein GFP. T cells that are Foxp3^− (i.e. GFP^−) and T cells that are Foxp3^+ (i.e. GFP^+) were isolated (FIG. 21A). Foxp3 expression was then assessed under different stimulation conditions, […]

| Compound | effect on poly(I:C)- or CpG DNA-enhanced activated CD4+ T cell survival (activated CD4+ T cells [1]) | Foxp3 expression in Foxp3-GFP- cells (non-regulatory T cells) [3] | other results |
| --- | --- | --- | --- |
| C[S+]([O-])c1ccc(-c2nc(-c3ccncc3)c(-c3ccc(F)cc3)[nH]2)cc1 (stereo not shown) [SB203580] | neither U0126 or SB203580 treatment decreased | – | – |
| N#CC(=C(/N)Sc1ccccc1N)/C(C#N)=C(\N)Sc1ccccc1N [U0126] | neither U0126 or SB203580 treatment decreased | – | overall survival rates of TLR-treated activated CD4+ T cells (activated CD4+ T cells [1]; concentration of 10 μM): small increase |
| IFN-α | – | – | activated CD4+ T cell survival (activated CD4+ T cells [2]; 72 hours following activation, DO11.10 CD4+ T cells activated with pOVA-pulsed APCs, purified, untreated 38% (FIG. 3A)): 67% |
| IL-6: cytokine added to the stimulation conditions | – | blocked the induction of Foxp3 | – |
| TGF-b | – | promoted Foxp3 expression | – |
| poly(C) | – | – | effect on activated CD4+ T cell survival (dose response) (activated CD4+ T cells [2]; FIG. 3B, purified activated CD4+ T cells): no significant effect |
